Assay results reported in patent publication EP0762895B1, “SYNTHETIC VACCINE FOR PROTECTION AGAINST HUMAN IMMUNODEFICIENCY VIRUS INFECTION” (DUKE UNIVERSITY, priority 1994, dated 1995).
Where no end group is shown, it is not given here.

Tested on: Normal Human Peripheral Blood Lymphocytes
Conditions: not given

With “CTRPNNNTRKSIRIQRGPG [SP-10, CTRPNNNTRKSIRIQRGPG]” the “Inhibition of normal T cell response to tetanus toxoid” value was “no inhibition of normal T cell response to tetanus toxoid was observed”.

Tested on: T cells
Conditions: T helper epitopes of Clerici et al 1989; share of population studied; cited from earlier work

Going from HEDIISLWNQSLK [T2] to KQIINMWQEVGKAMYA [T1], the “% Responding” value rises from 54% to 77%.

For “TH4: T helper epitope, amino acids 834-848 of gp41 (QGACRAIRHIPRRIR; Transmembrane protein gp41; UniProt P04578 834-848, looked up, fragment)”, the “% Responding” value is given as 75%.

Same assay, conditions: T helper epitopes of Schrier et al 1989; share of population studied; cited from earlier work

First: gp41-1: T helper epitope, amino acids 603-614 of gp41 (ICTTAVPWNASW; Transmembrane protein gp41; UniProt P04578 603-614, looked up, fragment)
Second: gp41-2: T helper epitope, amino acids 609-620 of gp41 (PWNASWSNKSLE; Transmembrane protein gp41; UniProt P04578 609-620, looked up, fragment)
The “% Responding” value of the first is lower: 41% for the first, 42% for the second.

Going from “gp41-3: T helper epitope, amino acids 655-667 of gp41 (KNEQELLELDKWA; Transmembrane protein gp41; UniProt P04578 655-667, looked up, fragment)” to “gp41-5: T helper epitope, amino acids 737-749 of gp41 (GGERDRDRSIRLV; Transmembrane protein gp41; UniProt P04578 737-749, looked up, fragment)”, the “% Responding” value falls from 38% to 21%.

Going from “gp41-7: T helper epitope, amino acids 584-609 of gp41 (ERYLKDQQLLGIWGCSGKLICTTAVP; Transmembrane protein gp41; UniProt P04578 584-609, looked up, fragment)” to “gp120-2: T helper epitope, amino acids 115-126 of gp120 (SLKPCVKLTPLC; Envelope glycoprotein gp120; UniProt P04578 115-126, looked up, fragment)”, the “% Responding” value rises from 24% to 38%.

Compared with “gp120-5: T helper epitope, amino acids 368-377 of gp120 (DPEIVTHSFN; Envelope glycoprotein gp120; UniProt P04578 368-377, looked up, fragment)”, “pol-1: T helper epitope, amino acids 899-913 of pol” is higher in “% Responding” value: 21% for the first, 28% for the second.

Going from “pol-2: T helper epitope, amino acids 923-937 of pol” to “pol-3: T helper epitope, amino acids 942-954 of pol”, the “% Responding” value rises from 38% to 48%.

For “pol-4: T helper epitope, amino acids 720-730 of pol (PSINNETPGIR; UniProt P04585 720-730, looked up, fragment)”, the “% Responding” value is given as 35%.
